Measurements taken from BigSolDB 2.1.

CCOC(=O)[C@@H]1CSCN1.Cl
solubility (mole fraction)
Settings | 283.15 K | 288.15 K | 293.15 K | 298.15 K | 303.15 K | 313.15 K | 323.15 K
in 1,4-dioxane | – | 0.000476 | 0.000593 | – | 0.000872 | 0.00156 | 0.00266
in 2-butanone | 4.1e-05 | – | 0.000107 | – | 0.00018 | 0.000298 | 0.000434
in acetone | 4e-05 | – | 0.000116 | – | 0.000348 | 0.000859 | 0.00187
in acetonitrile | 0.000408 | – | 0.00125 | – | 0.00252 | 0.00451 | 0.00664
in dichloromethane | 0.00638 | 0.01 | 0.0128 | 0.0157 | 0.0187 | – | –
in ethanol | 0.00937 | – | 0.0125 | – | 0.0193 | 0.0306 | 0.0473
in ethyl acetate | 0.000103 | – | 0.000161 | – | 0.000215 | 0.000273 | 0.000345
in isobutanol | 0.00153 | – | 0.00257 | – | 0.00495 | 0.00811 | 0.0117
in isopropanol | 0.00271 | – | 0.00323 | – | 0.00492 | 0.00807 | 0.0131
in methanol | 0.0465 | – | 0.0619 | – | 0.0835 | 0.112 | 0.142
in methyl acetate | 3.8e-05 | – | 7e-05 | – | 0.000126 | 0.000192 | 0.000276
in n-butanol | 0.00141 | – | 0.00427 | – | 0.00829 | 0.0124 | 0.017
in n-propanol | 0.00489 | – | 0.0078 | – | 0.012 | 0.0186 | 0.0298
in sec-butanol | 0.000766 | – | 0.00103 | – | 0.00182 | 0.00365 | 0.00936
in water | 0.0825 | – | 0.104 | – | 0.124 | 0.148 | 0.188
